Legend:
Type in all cases: cell-based, human
class I and II HDAC = assay: HDAC protein levels in CB-MNCs, Western blot, all HDACs examined; conditions: after 2 hours of treatment
Excerpt: (§1) Cellular proteins were separated by SDS-PAGE using Novex (Invitrogen) and transferred by iBlot (Invitrogen). The membranes were probed with mAbs against individual histone deacetylases (HDAC1, HDAC2, HDAC3, HDAC4, HDAC5, HDAC6, and β-actin; Cell Signaling Technology) and developed using a chemiluminescence system with HRP-conjugated secondary antibodies (Amersham Biosciences) according to the manufacturer's instructions.

CB CD34+ cells = assay: Ex vivo expansion of CB CD34+ cells with HDACIs, phenotypic analysis by flow cytometry; conditions: 7 days of culture with cytokines plus HDACI
Excerpt: CB collections were purchased from the Placental Blood Program at the New York Blood Center. CB-MNCs were isolated by Ficoll-Hypaque density centrifugation, and CD34+ cells were purified by immunotnagnetic selection as previously described (Chaurasia et al., “Chromatin-Modifying Agents Promote the Ex vivo Production of Functional Human Erythroid Progenitor Cells,” Blood 117:4632-4641 (2011), which is hereby incorporated by reference in its entirety). Highly purified (90%-98%) PCs (4.0-5.0×10^4) were cultured in SF Stemline II (Sigma-Aldrich) culture medium or IMDM (Lonza) containing 30% FBS (HyClone Laboratories) supplemented with 150 ng/ml SCF, 100 ng/ml fms-like tyrosine kinase receptor 3 (FLT3 ligand), 100 ng/ml thrombopoietin (TPO), and 50 ng/ml interleukin 3 (IL-3) (R&D Systems) and incubated in a humidified incubator maintained at 37° C. with 5% CO2. […] The cell populations studied and the various conditions under which they were cultured are referred to by specific terms listed in Table 1. Viable PC and cultured cells were enumerated using the trypan blue exclusion method. The fold expansion of CD34+ cells or subpopulations was calculated based on the number of CD34+ cells determined to be present in an individual CB collection and the number of CD34+ cells that would have been generated if all of the CD34+ cells within that primary CB collection were cultured using the various culture conditions described. PC or cultured cells expanded in the presence or absence of HDACIs were stained with an anti-human CD34 mAb or an isotype-matched control mAb and analyzed using a FACSCanto II (BD). CD34+ cells were re-isolated using a CD34+ cell isolation kit, as previously described, for further phenotypic and functional analyses. All mAbs were purchased from BD Biosciences and Cell Signaling Technology. Phenotypic analyses ([…], […], and […]7) of the ex vivo-expanded cells after 7 days in control cultures or cytokines plus an HDACI were performed as previously described (Chaurasia et al., “Chromatin-Modifying Agents Promote the Ex vivo Production of Functional Human Erythroid Progenitor Cells,” Blood 117:4632-4641 (2011), which is hereby incorporated by reference in its entirety).

HDAC3 = assay: HDAC protein levels in CB-MNCs, Western blot densitometry; conditions: 24 hr, SCR 8 μM, C433 80 μM, VPA 1.25 mM
Excerpt: as §1

HDAC5 = assay: as above; conditions: 24 hr, SCR 8 μM, C433 80 μM, VPA 1.25 mM
HDAC1 = assay: as above; conditions: 24 hr, SCR 8 μM, C433 80 μM, VPA 1.25 mM
HDAC4 = assay: as above; conditions: 24 hr, SCR 8 μM, C433 80 μM, VPA 1.25 mM
HDAC2 = assay: as above; conditions: 24 hr, SCR 8 μM, C433 80 μM, VPA 1.25 mM
HDAC6 = assay: as above; conditions: 24 hr, SCR 8 μM, C433 80 μM, VPA 1.25 mM
Excerpt: as §1

| Compound | inhibition of HDAC expression (class I and II HDAC) | percentage of CD34+CD90+ cells (CB CD34+ cells) | HDAC3 expression relative to b-ACTIN (%) (HDAC3) | HDAC5 expression relative to b-ACTIN (%) (HDAC5) | HDAC1 expression relative to b-ACTIN (%) (HDAC1) | HDAC4 expression relative to b-ACTIN (%) (HDAC4) | HDAC2 expression relative to b-ACTIN (%) (HDAC2) | HDAC6 expression relative to b-ACTIN (%) (HDAC6) |
| --- | --- | --- | --- | --- | --- | --- | --- | --- |
| Nc1ccccc1NC(=O)CCCCCCC(=O)Nc1ccccc1 [C433, CAY10433] | did not inhibit HDAC expression | 70.1%±18.4% | 28.0 ± 20.0% | 12.6 ± 1.9% | 24.3 ± 0.4% | 23.5 ± 16.5% | 40.0 ± 8.0% | 35.8 ± 7.2% |
| O=C(CCCCCN1C(=O)c2cccc3cccc(c23)C1=O)NO [SCR, Scriptaid] | did not inhibit HDAC expression | 73.4%±13.9% |  |  |  |  |  |  |
